# Test results taken from ChEMBL document CHEMBL2401633, “tert-Butyl 1,5-bis(4-(benzo[d]isothiazol-3-yl)piperazin-1-yl)-1,5-dioxopentan-2-ylcarbamate urea/thiourea derivatives as potent H+/K(+)-ATPase inhibitors” (Bioorg Med Chem Lett, 2013).
# Test system: not listed separately
# Test: Inhibition of sheep gastric H(+)/K(+)-ATPase-mediated inorganic phosphate liberation after 15 mins by Fiske Subbarow method in presence of ATP
# Type: tissue-based, Ovis aries, Stomach
# Conditions: not given; call rule not given here
row,Structure (SMILES),IC50
1,CC(C)(C)OC(=O)NC(CCC(=O)OCc1ccccc1)C(=O)N1CCN(c2nsc3ccccc23)CC1 (configuration not stated),Not Active
2,CC(C)(C)OC(=O)NC(CCC(=O)N1CCN(c2nsc3ccccc23)CC1)C(=O)N1CCN(c2nsc3ccccc23)CC1 (configuration not stated),Not Active
3,CC(C)(C)OC(=O)NC(CCC(=O)O)C(=O)N1CCN(c2nsc3ccccc23)CC1 (configuration not stated),Not Active
4,CC(C)(C)OC(=O)NC(CCC(=O)OCc1ccccc1)C(=O)O (configuration not stated),Not Active

# Same assay, conditions: read-out: IC50
row,Structure (SMILES),IC50 [µM]
1,COc1cccc(NC(=S)NC(CCC(=O)N2CCN(c3nsc4ccccc34)CC2)C(=O)N2CCN(c3nsc4ccccc34)CC2)c1 (configuration not stated),10
2,O=C(Nc1ccccc1)NC(CCC(=O)N1CCN(c2nsc3ccccc23)CC1)C(=O)N1CCN(c2nsc3ccccc23)CC1 (configuration not stated),94
3,O=C(CCC(NC(=S)Nc1cccc(Cl)c1)C(=O)N1CCN(c2nsc3ccccc23)CC1)N1CCN(c2nsc3ccccc23)CC1 (configuration not stated),60
4,O=C(Nc1ccccc1F)NC(CCC(=O)N1CCN(c2nsc3ccccc23)CC1)C(=O)N1CCN(c2nsc3ccccc23)CC1 (configuration not stated),80
5,O=C(Nc1cccc(Br)c1)NC(CCC(=O)N1CCN(c2nsc3ccccc23)CC1)C(=O)N1CCN(c2nsc3ccccc23)CC1 (configuration not stated),50
6,O=C(CCC(NC(=S)Nc1ccccc1Br)C(=O)N1CCN(c2nsc3ccccc23)CC1)N1CCN(c2nsc3ccccc23)CC1 (configuration not stated),44
7,O=C(Nc1cccc(Cl)c1)NC(CCC(=O)N1CCN(c2nsc3ccccc23)CC1)C(=O)N1CCN(c2nsc3ccccc23)CC1 (configuration not stated),56
8,O=C(Nc1cccc(F)c1)NC(CCC(=O)N1CCN(c2nsc3ccccc23)CC1)C(=O)N1CCN(c2nsc3ccccc23)CC1 (configuration not stated),78
9,COc1ccc(NC(=O)NC(CCC(=O)N2CCN(c3nsc4ccccc34)CC2)C(=O)N2CCN(c3nsc4ccccc34)CC2)cc1 (configuration not stated),6.2
10,O=C(Nc1ccc(F)cc1)NC(CCC(=O)N1CCN(c2nsc3ccccc23)CC1)C(=O)N1CCN(c2nsc3ccccc23)CC1 (configuration not stated),72
11,O=C(Nc1ccc(Br)cc1)NC(CCC(=O)N1CCN(c2nsc3ccccc23)CC1)C(=O)N1CCN(c2nsc3ccccc23)CC1 (configuration not stated),46
12,O=C(Nc1ccc(Cl)cc1)NC(CCC(=O)N1CCN(c2nsc3ccccc23)CC1)C(=O)N1CCN(c2nsc3ccccc23)CC1 (configuration not stated),52
13,COc1ccc(NC(=S)NC(CCC(=O)N2CCN(c3nsc4ccccc34)CC2)C(=O)N2CCN(c3nsc4ccccc34)CC2)cc1 (configuration not stated),5.4
14,COc1ccccc1NC(=S)NC(CCC(=O)N1CCN(c2nsc3ccccc23)CC1)C(=O)N1CCN(c2nsc3ccccc23)CC1 (configuration not stated),17
15,O=C(CCC(NC(=S)Nc1ccc(F)cc1)C(=O)N1CCN(c2nsc3ccccc23)CC1)N1CCN(c2nsc3ccccc23)CC1 (configuration not stated),70
16,O=C(CCC(NC(=S)Nc1ccccc1)C(=O)N1CCN(c2nsc3ccccc23)CC1)N1CCN(c2nsc3ccccc23)CC1 (configuration not stated),90
17,COc1ccccc1NC(=O)NC(CCC(=O)N1CCN(c2nsc3ccccc23)CC1)C(=O)N1CCN(c2nsc3ccccc23)CC1 (configuration not stated),19
18,O=C(CCC(NC(=S)Nc1ccc(Cl)cc1)C(=O)N1CCN(c2nsc3ccccc23)CC1)N1CCN(c2nsc3ccccc23)CC1 (configuration not stated),54
19,COc1ccc2[nH]c([S+]([O-])Cc3ncc(C)c(OC)c3C)nc2c1 (configuration not stated) [OMEPRAZOLE],84
20,O=C(CCC(NC(=S)Nc1cccc(Br)c1)C(=O)N1CCN(c2nsc3ccccc23)CC1)N1CCN(c2nsc3ccccc23)CC1 (configuration not stated),48
21,COc1cccc(NC(=O)NC(CCC(=O)N2CCN(c3nsc4ccccc34)CC2)C(=O)N2CCN(c3nsc4ccccc34)CC2)c1 (configuration not stated),11
22,O=C(CCC(NC(=S)Nc1ccccc1F)C(=O)N1CCN(c2nsc3ccccc23)CC1)N1CCN(c2nsc3ccccc23)CC1 (configuration not stated),74

# Organism: Ovis aries
# Test: Ratio of omeprazole IC50 to compound IC50 for sheep gastric H(+)/K(+) ATPase
# Type: tissue-based
# Conditions: Stomach
row,Structure (SMILES),Ratio IC50
1,COc1ccc(NC(=S)NC(CCC(=O)N2CCN(c3nsc4ccccc34)CC2)C(=O)N2CCN(c3nsc4ccccc34)CC2)cc1 (configuration not stated),15
